In patent publication US4727074A, “2-(phenylmethylene)-1-(diaminoalkoxy) cycloalkanes and their pharmaceutical uses” (priority 1983, dated 1988):

Tests used:
[1] = Acute toxicity on mice (oral); type: in vivo; conditions: mouse, in vivo, 4 days observation
Experimental: (§1) (1) Acute toxicity on mice
(§2) The acute toxicity is determined on male and female white mice of the CFLP strain. The body weight of the animals amounts to 18-24 g. The test compound is administered orally in a dose of 20 ml/kg. After treatment the animals are placed in a mouse box and kept on scrapings litter at room temperature. The animals receive mouse fodder and tap water ad libitum.

[2] = test system: Hexobarbital sleeping time; experiment: animal or person; type: in vivo; conditions: for ED50: Mus musculus, iv, read-out: ED50 (narcosis potentiating effect); for Therapeutical index (narcosis potentiating): Table I, LD50/ED50, mice; for ED50 (narcosis potentiating effect): mice, Hexobarbital i.v., effect = sleeping time 2.5 times longer than control
Experimental: (2) Narcosis potentiating effect
To mice having a body weight of 20-24 g Hexobarbital is administered intravenously in a dose of […]. The sleeping time of the treated and control animals is measured.

[3] = test system: writhing reactions; experiment: Analgesic effect on mice (acetic acid writhing); type: in vivo; conditions: for ED50: Mus musculus, po, 1 h, read-out: ED50 (analgesic effect); for Therapeutical index (analgesic): Table II, LD50/ED50, mice; for ED50 (analgesic effect) / ED50 (analgesic effect), inactive: mice, oral; for ED50 (analgesic effect): one hour prior to 0.5% acetic acid
Experimental: (3) Analgesic effect on mice
To mice 0.4 ml of 0.5% acetic acid is […] administered. After 5 minutes the characteristic writhing reactions are counted for a period of 5 minutes. The test compound is administered orally one hour prior to the administration of acetic acid. The activity is expressed in the percentage of the data obtained for the control group.

[4] = test system: white mice of the CFLP strain; experiment: Acute toxicity on mice (oral); type: in vivo; conditions: 4 days observation
Experimental: as §1, §2

[5] = test system: aconitine; experiment: animal or person; type: in vivo, rats; conditions: for ED50: Rattus norvegicus, iv, read-out: Percental aconitine inhibition ED50; for Therapeutical index (antiarrhythmial): Table IV, LD50 i.v./ED50; for Percental inhibition of aconitine: rats, 2 minutes before aconitine
Experimental: (4) Antiarrhythmial effect on rats
The antiarrhythmial effect is determined on rats (both male and female; body weight 160-200 g) according to the modified test of Marmo et al. [Marmo et al.: Arzneimittelforschung 20, 12 (1970)]. Aconitine is intravenously administered in the form of a bolus injection. The ECG deviations are followed for 5 minutes by a standard II method. The test compound is administered intravenously 2 minutes before the addition of aconitine.
In Table IV the antiarrhythmial effect of a representative compound of the present invention is compared to that of a very active compound specifically disclosed in Hungarian Pat. No. 169,298. The test is carried out as disclosed in connection with Table III.

[6] = Acute toxicity i.v. (LD50 of Table IV); conditions: rat, in vivo

What does the source list for C(=C1/CCCC/C1=N\OCCCN1CCN(c2ccccc2)CC1)/c1ccccc1 [Example 1, 2-[(E)-phenylmethylene]-1-[(E)-(4'-phenyl-piperazinyl-propoxyimino)]-cyclohexane]?
LD50 at 96 h ([1]; po, Table I): 2000 mg/kg; LD50 at 96 h ([1]; po, Table II): > 2000 mg/kg; ED50 [2]: 200 mg/kg; Therapeutical index (narcosis potentiating) [2]: 10.0; ED50 [3]: 200 mg/kg; Therapeutical index (analgesic) [3]: > 10.0

With Clc1cccc(/C=C2\CCCCC\C2=N/OCCCN2CCN(Cc3ccccc3)CC2)c1 [Example 2, 2-[(E)-(m-chloro-phenylmethylene)]-1-[(E)-(4'-benzylpiperazinyl-propoxyimino)]-cycloheptane] as the molecule, how does the LD50 ([4]; Table II) read?
The LD50 was 740 mg/kg.

And the “Therapeutical index (analgesic)” value [3]?
The value was 17.2.

And the “ED50 (analgesic effect)” value [3]?
The value was 43 mg/kg.

Which results are given for CC(C)N(CCCO/N=C1\CCCC\C1=C/c1ccc(Cl)cc1)C(C)C [Example 3, 2-[(E)-(p-chloro-phenylmethylene)]-1-[(E)-(3'-diisopropylamino-propoxyimino)]-cyclohexane]?
LD50 at 96 h ([1]; po, Table II): 1100 mg/kg; ED50 [3]: 45 mg/kg; Therapeutical index (analgesic) [3]: 24.2

Which results are given for CC(C)N(CCCO/N=C1\CCCC\C1=C/c1ccccc1)C(C)C [Example 4, 2-[(E)-phenylmethylene]-1-[(E)-(3'-diisopropylamino-propoxyimino)]-cyclohexane]?
ED50 [5]: 0.54 mg/kg; Therapeutical index (antiarrhythmial) [5]: 23.14; Percental inhibition of aconitine ([5]; dose 1 mg/kg i.v.): 86.2 Percental; LD50 [6]: 12.5 mg/kg

For CC(C)N(CCO/N=C1\CCCCC\C1=C\c1ccccc1)C(C)C [Example 5, 2-[(Z)-phenylmethylene]-1-[(E)-(2'-diisopropylamino-ethoxyimino)]-cycloheptane], which LD50 at 96 h ([1]; po, Table I) is on record?
Its LD50 at 96 h is 800 mg/kg.

And the ED50 [2]?
The ED50 was 40 mg/kg.

And the “Therapeutical index (narcosis potentiating)” value [2]?
Its value is 20.0.

And the “Percental inhibition of aconitine” value ([5]; dose 4 mg/kg i.v.)?
The value was 34.7 Percental.

For CC(CO/N=C1\CCCCC\C1=C/c1ccccc1)N(C)C (stereo not drawn) [Example 8, 2-[(E)-phenylmethylene]-1-[(E)-(2'-dimethylamino-2'-methyl-1-ethoxyimino)]-cycloheptane], which LD50 at 96 h ([1]; po, Table I) is on record?
Its LD50 at 96 h is 800 mg/kg.

What about the ED50 [2] of the same molecule?
The ED50 was 22 mg/kg.

And the “Therapeutical index (narcosis potentiating)” value [2]?
The value was 36.4.

Which LD50 at 96 h ([1]; po, Table I) does the source give for CC(CO/N=C1\CCCC\C1=C/c1ccccc1)N(C)C (stereo not drawn) [Example 9, 2-[(E)-phenylmethylene]-1-[(E)-(2'-dimethylamino-2'-methyl-1-ethoxyimino)]-cyclohexane] here?
The LD50 at 96 h was 600 mg/kg.

What about the ED50 [2] of the same molecule?
The ED50 was 23 mg/kg.

And the “Therapeutical index (narcosis potentiating)” value [2]?
The value was 26.0.

What does the source list for CC(C)N(CCO/N=C1\CCCCCC\C1=C/c1ccccc1)C(C)C [Example 10, 2-[(E)-phenylmethylene]-1-[(E)-(2'-diisopropylamino-ethoxyimino)]-cyclooctane]?
LD50 at 96 h ([1]; po, Table II): 400 mg/kg; ED50 [3]: 58 mg/kg; Therapeutical index (analgesic) [3]: 6.9; Percental inhibition of aconitine ([5]; dose 4 mg/kg i.v.): 57.6 Percental

With CN(C)CCCO/N=C1\CCCCCC\C1=C/c1ccccc1 [Example 11] as the molecule, how does the LD50 ([4]; Table I) read?
Its LD50 is 1000 mg/kg.

And the LD50 ([4]; Table II)?
Its LD50 is 1000 mg/kg.

What about the “Therapeutical index (narcosis potentiating)” value [2] of the same molecule?
Its value is 500.0.

And the “ED50 (narcosis potentiating effect)” value [2]?
The value was 2 mg/kg.

And the “Therapeutical index (analgesic)” value [3]?
Its value is 6.7.

What about the “ED50 (analgesic effect)” value [3] of the same molecule?
Its value is 150 mg/kg.

With CC(C)N(CCO/N=C1\CCCC\C1=C/c1ccccc1)C(C)C [Example 12] as the molecule, how does the “Percental inhibition of aconitine” value ([5]; dose 2 mg/kg i.v.) read?
The value was 39.2 Percental.

Which LD50 at 96 h ([1]; po, Table I) does the source give for CN(C)CCO/N=C1\CCCC\C1=C/c1ccc(Cl)cc1 [Example 13] here?
Its LD50 at 96 h is 2000 mg/kg.

What about the ED50 [2] of the same molecule?
The ED50 was 10 mg/kg.

What about the “Therapeutical index (narcosis potentiating)” value [2] of the same molecule?
The value was 200.0.

What about the “Percental inhibition of aconitine” value ([5]; dose 2 mg/kg i.v.) of the same molecule?
The value was 35.3 Percental.

Which “Percental inhibition of aconitine” value ([5]; dose 4 mg/kg i.v.) does the source give for CCN(CC)CC(=O)Nc1c(C)cccc1C [Lidocaine, N,N-diethyl-2,6-dimethyl-acetanilide, reference compound] here?
Its value is 23.5 Percental.

With CCCC(C)(COC(N)=O)COC(N)=O [Meprobamate, 2-methyl-2-n-propyl-1,3-propanediol-dicarbamate, reference compound] as the molecule, how does the LD50 at 96 h ([1]; Table I) read?
Its LD50 at 96 h is 1100 mg/kg.

And the ED50 [2]?
Its ED50 is 260 mg/kg.

What about the “Therapeutical index (narcosis potentiating)” value [2] of the same molecule?
The value was 4.2.

With CC(=O)Nc1ccc(O)cc1 [Paracetamol, 4-hydroxy-acetanilide, reference compound] as the molecule, how does the ED50 [3] read?
Its ED50 is 180 mg/kg.

For CN(C)CCCON=C1CCCCC1Cc1ccccc1 (stereo not drawn) [Reference compound A, 2-benzyl-1-(3'-dimethylamino-propoxy-imino)-cyclohexane, reference compound], which LD50 at 96 h ([1]; po, Table II) is on record?
Its LD50 at 96 h is 250 mg/kg.

And the “ED50 (narcosis potentiating effect)” value [2]?
The value was “inactive in a dose of 50 mg/kg”.

With COc1ccccc1C=C1CCCCC1=NOCC(C)CN(C)C (stereo not drawn) [Reference compound C, 1-(2'-methyl-3'-dimethylaminopropoxyimino)-2-(o-methoxy-benzal)-cyclohexane, reference compound] as the molecule, how does the “ED50 (narcosis potentiating effect)” value [2] read?
Its value is “inactive in a dose of 100 mg/kg”.

With CN(C)CCCON=C1CCCCC1Cc1ccc(Cl)cc1 (stereo not drawn) [Reference compound E, 1-(3'-dimethylamino-propoxyimino)-2-(p-chlorobenzyl)-cyclohexane, reference compound] as the molecule, how does the “ED50 (narcosis potentiating effect)” value [2] read?
The value was “inactive in a dose of 170 mg/kg”.

For COc1ccc(C=C2CCCCC2=NOCCCN(C)C)cc1 [Reference compound F, 1-(3'-dimethylamino-propoxyimino)-2-(p-methoxybenzal)-cyclohexane, reference compound], which LD50 at 96 h ([1]; po, Table II) is on record?
Its LD50 at 96 h is 1750 mg/kg.

And the “ED50 (analgesic effect), inactive” value ([3]; in a dose of 350 mg/kg)?
The value was “inactive”.

With CC(C)N(CCON=C1CCCCCC1=Cc1ccccc1)C(C)C [Reference compound G, 2-benzal-1-(2'-diisopropylamino-ethoxyimino)-cycloheptane, reference compound] as the molecule, how does the LD50 at 96 h ([1]; po, Table II) read?
The LD50 at 96 h was 325 mg/kg.

What about the “ED50 (analgesic effect), inactive” value ([3]; in a dose of 65 mg/kg) of the same molecule?
The value was “inactive”.

What about the ED50 [5] of the same molecule?
The ED50 was 2 mg/kg.

What about the “Therapeutical index (antiarrhythmial)” value [5] of the same molecule?
Its value is 10.59.

And the LD50 [6]?
The LD50 was 21.2 mg/kg.
